Measurements taken from ChEMBL document CHEMBL4673300, “Fragment-Based Discovery of Novel Non-Hydroxamate LpxC Inhibitors with Antibacterial Activity” (J Med Chem, 2020).
≈ marks a conversion by molar mass, not a printed value. Calls of active or inactive are those of the source. The rule behind the calls is not given here.

system: Escherichia coli; test: Antibacterial activity against Escherichia coli ATCC 25922 by CLSI method; format: functional

MIC	Compound
> 32 µg/mL	N[C@H](CO)C(=O)N1CCC(Cc2ccc(C#Cc3ccc(CO)cc3)cc2)CC1
> 128 µg/mL	C[C@@H](O)c1nccn1Cc1cc(C#Cc2ccc(CCCO)cc2)on1
0.5 µg/mL (≈ 1.42 µM)	C[C@H](O)c1nccn1Cc1cc(C#Cc2ccc(CCCO)cc2)on1
64 µg/mL (≈ 132 µM)	CS(=O)(=O)C[C@H](O)[C@@H](N)C(=O)N1CCC(Cc2ccc(C#Cc3ccc(CO)cc3)cc2)CC1 (racemic)
2 µg/mL (≈ 5.69 µM)	CC(O)c1nccn1Cc1cc(C#Cc2ccc(CCCO)cc2)on1 (racemic)

Second part, the compound before the results:

Compound	MIC
C[C@H](O)c1nccn1Cc1cc(C#Cc2ccc(OCCCNC3COC3)cc2)on1	1 µg/mL (≈ 2.37 µM)
C[C@H](O)c1nccn1Cc1cc(C#Cc2ccc(OCCCNCCN)cc2)on1	2 µg/mL (≈ 4.88 µM)
CC(O)c1nccn1Cc1cc(C#Cc2ccccc2)on1 (racemic)	16 µg/mL (≈ 54.5 µM)
C[C@H](O)c1nccn1Cc1cc(C#Cc2ccc(OC3CN(CCO)C3)cc2)on1	4 µg/mL (≈ 9.79 µM)
C[C@H](O)c1nccn1Cc1cc(C#Cc2ccc(OCC(N)(CO)CO)cc2)on1	16 µg/mL (≈ 38.8 µM)

system: Escherichia coli; test: Antibacterial activity against Escherichia coli ATCC 25922 in presence of efflux pump inhibitor phenylalanine-arginine beta-naphthylamideby CLSI method; format: functional

Compound	MIC	Activity
N[C@H](CO)C(=O)N1CCC(Cc2ccc(C#Cc3ccc(CO)cc3)cc2)CC1	16 µg/mL	
CC(O)c1nccn1Cc1ccc(C#Cc2ccccc2)cc1 (racemic)		inactive
CS(=O)(=O)C[C@H](O)[C@@H](N)C(=O)N1CCC(Cc2ccc(C#Cc3ccc(CO)cc3)cc2)CC1 (racemic)	1 µg/mL	

system: Pseudomonas aeruginosa; test: Antibacterial activity against Pseudomonas aeruginosa ATCC 27853 in presence of efflux pump inhibitor phenylalanine-arginine beta-naphthylamide by CLSI method; format: functional

Compound	MIC
N[C@H](CO)C(=O)N1CCC(Cc2ccc(C#Cc3ccc(CO)cc3)cc2)CC1	32 µg/mL
CS(=O)(=O)C[C@H](O)[C@@H](N)C(=O)N1CCC(Cc2ccc(C#Cc3ccc(CO)cc3)cc2)CC1 (racemic)	8 µg/mL

target: 72 kDa type IV collagenase (Homo sapiens, UniProt P08253); test: Inhibition of human MMP-2 by fluorometric assay
Sequence (P08253 whole entry): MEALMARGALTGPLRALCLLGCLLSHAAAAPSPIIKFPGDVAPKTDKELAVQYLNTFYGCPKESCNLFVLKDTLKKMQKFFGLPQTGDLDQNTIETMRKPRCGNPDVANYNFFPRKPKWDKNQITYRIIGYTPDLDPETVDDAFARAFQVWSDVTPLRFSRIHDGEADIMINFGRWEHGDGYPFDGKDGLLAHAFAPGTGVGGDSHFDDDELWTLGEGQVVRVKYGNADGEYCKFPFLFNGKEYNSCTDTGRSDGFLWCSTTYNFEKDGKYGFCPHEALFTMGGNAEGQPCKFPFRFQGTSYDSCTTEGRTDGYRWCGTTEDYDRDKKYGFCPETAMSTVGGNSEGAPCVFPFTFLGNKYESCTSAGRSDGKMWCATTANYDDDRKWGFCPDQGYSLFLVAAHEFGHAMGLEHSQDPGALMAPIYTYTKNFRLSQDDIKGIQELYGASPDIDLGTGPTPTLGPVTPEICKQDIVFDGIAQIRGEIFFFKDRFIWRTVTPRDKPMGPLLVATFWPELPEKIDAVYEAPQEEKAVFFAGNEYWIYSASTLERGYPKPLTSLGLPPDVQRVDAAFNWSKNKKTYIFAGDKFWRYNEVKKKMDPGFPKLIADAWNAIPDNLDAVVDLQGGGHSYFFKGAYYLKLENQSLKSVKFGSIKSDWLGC

Compound	IC50
O=C(NO)[C@@H](Cc1ccc2ccccc2c1)NS(=O)(=O)c1ccc2ccccc2c1	0.0175 µM
C[C@H](O)c1nccn1Cc1cc(C#Cc2ccc(OCC(N)(CO)CO)cc2)on1	> 100 µM
CS(=O)(=O)C[C@H](O)[C@@H](N)C(=O)N1CCC(Cc2ccc(C#Cc3ccc(CO)cc3)cc2)CC1 (racemic)	> 100 µM

system: Pseudomonas aeruginosa; test: Antibacterial activity against Pseudomonas aeruginosa ATCC 27853 by CLSI method; format: functional

MIC	Compound
> 32 µg/mL	N[C@H](CO)C(=O)N1CCC(Cc2ccc(C#Cc3ccc(CO)cc3)cc2)CC1
> 128 µg/mL	C[C@@H](O)c1nccn1Cc1cc(C#Cc2ccc(CCCO)cc2)on1
32 µg/mL (≈ 91.1 µM)	C[C@H](O)c1nccn1Cc1cc(C#Cc2ccc(CCCO)cc2)on1
64 µg/mL (≈ 132 µM)	CS(=O)(=O)C[C@H](O)[C@@H](N)C(=O)N1CCC(Cc2ccc(C#Cc3ccc(CO)cc3)cc2)CC1 (racemic)
64 µg/mL (≈ 182 µM)	CC(O)c1nccn1Cc1cc(C#Cc2ccc(CCCO)cc2)on1 (racemic)

Continued, compound first:

Compound	MIC
C[C@H](O)c1nccn1Cc1cc(C#Cc2ccc(OCCCNC3COC3)cc2)on1	8 µg/mL (≈ 18.9 µM)
C[C@H](O)c1nccn1Cc1cc(C#Cc2ccc(OCCCNCCN)cc2)on1	2 µg/mL (≈ 4.88 µM)
CC(O)c1nccn1Cc1cc(C#Cc2ccccc2)on1 (racemic)	> 128 µg/mL
C[C@H](O)c1nccn1Cc1cc(C#Cc2ccc(OC3CN(CCO)C3)cc2)on1	4 µg/mL (≈ 9.79 µM)
C[C@H](O)c1nccn1Cc1cc(C#Cc2ccc(OCC(N)(CO)CO)cc2)on1	4 µg/mL (≈ 9.7 µM)

target: T1, UDP-3-O-acyl-N-acetylglucosamine deacetylase (Pseudomonas aeruginosa (strain ATCC 15692 / PAO1 / 1C / PRS 101 / LMG12228), UniProt P47205); test: Displacement of (S)-N-(2-(N-(3-biphenyl-4-ylcarboxamido-4-(hydroxyamino)-4-oxobutyl)sulfamoyl)ethyl)-3',6'-dihydroxy-3-oxo-3H-spiro[isobenzofuran-1,9'-xanthene]-5-carboxamide fluorescent probe from histidine tagged Pseudomonas aeruginosa LpxC (1-303) expressed in Escherichia coli BL21 (DE3) preincubated for 30 mins followed by addition of fluorscein probe measured after 2 hrs by fluorescence …
T1 sequence (P47205 whole entry): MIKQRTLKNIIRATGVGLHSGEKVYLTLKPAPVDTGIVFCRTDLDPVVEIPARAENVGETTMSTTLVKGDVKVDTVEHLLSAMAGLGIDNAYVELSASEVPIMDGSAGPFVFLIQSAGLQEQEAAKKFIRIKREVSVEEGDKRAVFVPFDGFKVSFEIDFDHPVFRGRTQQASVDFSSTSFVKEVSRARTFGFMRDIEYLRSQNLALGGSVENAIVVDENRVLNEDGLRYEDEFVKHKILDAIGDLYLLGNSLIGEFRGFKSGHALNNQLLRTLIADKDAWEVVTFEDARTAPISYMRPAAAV

IC50	Compound
0.0522 µM	CC(O)c1nccn1CCCc1ccc(C#Cc2ccccc2)cc1 (racemic)
0.0929 µM	CC(O)c1nccn1Cc1ccc(C#Cc2ccccc2)cc1 (racemic)

The remaining lines, values behind:

Compound	IC50
N[C@H](CC(=O)O)C(=O)Nc1cccc(OC(F)(F)F)c1	5.69 µM
CC(O)c1nccn1Cc1cc(-c2ccccc2)on1 (racemic)	0.125 µM
CS(=O)(=O)C[C@@H](N)C(=O)Nc1cccc(OC(F)(F)F)c1	> 100 µM
OC(COc1ccc(Cl)cc1)Cn1ccnc1 (racemic)	259 µM
Clc1ccc(CCCn2ccnc2)cc1	125 µM
Clc1ccc(CCn2ccnc2)cc1	2780 µM
CC(O)c1nccn1Cc1cc(C#Cc2ccccc2)on1 (racemic)	0.0206 µM

system: Pseudomonas aeruginosa; test: Antibacterial activity against Pseudomonas aeruginosa 5567 in absence of human serum albumin by CLSI method; format: functional

MIC	Compound
> 128 µg/mL	C[C@@H](O)c1nccn1Cc1cc(C#Cc2ccc(CCCO)cc2)on1
16 µg/mL (≈ 45.5 µM)	C[C@H](O)c1nccn1Cc1cc(C#Cc2ccc(CCCO)cc2)on1
32 µg/mL (≈ 91.1 µM)	CC(O)c1nccn1Cc1cc(C#Cc2ccc(CCCO)cc2)on1 (racemic)

Further lines, the compound ahead of its results:

Compound	MIC
C[C@H](O)c1nccn1Cc1cc(C#Cc2ccc(OCCCNC3COC3)cc2)on1	8 µg/mL (≈ 18.9 µM)
C[C@H](O)c1nccn1Cc1cc(C#Cc2ccc(OCCCNCCN)cc2)on1	4 µg/mL (≈ 9.77 µM)
CC(O)c1nccn1Cc1cc(C#Cc2ccccc2)on1 (racemic)	64 µg/mL (≈ 218 µM)
C[C@H](O)c1nccn1Cc1cc(C#Cc2ccc(OC3CN(CCO)C3)cc2)on1	4 µg/mL (≈ 9.79 µM)
C[C@H](O)c1nccn1Cc1cc(C#Cc2ccc(OCC(N)(CO)CO)cc2)on1	4 µg/mL (≈ 9.7 µM)

system: Pseudomonas aeruginosa; test: Antibacterial activity against Pseudomonas aeruginosa 5567 in presence of human serum albumin by CLSI method; format: functional

MIC	Compound
> 128 µg/mL	C[C@@H](O)c1nccn1Cc1cc(C#Cc2ccc(CCCO)cc2)on1
> 64 µg/mL	C[C@H](O)c1nccn1Cc1cc(C#Cc2ccc(CCCO)cc2)on1
> 128 µg/mL	CC(O)c1nccn1Cc1cc(C#Cc2ccc(CCCO)cc2)on1 (racemic)

The remaining lines, values behind:

Compound	MIC
C[C@H](O)c1nccn1Cc1cc(C#Cc2ccc(OCCCNC3COC3)cc2)on1	64 µg/mL
C[C@H](O)c1nccn1Cc1cc(C#Cc2ccc(OCCCNCCN)cc2)on1	16 µg/mL
CC(O)c1nccn1Cc1cc(C#Cc2ccccc2)on1 (racemic)	> 128 µg/mL
C[C@H](O)c1nccn1Cc1cc(C#Cc2ccc(OC3CN(CCO)C3)cc2)on1	16 µg/mL
C[C@H](O)c1nccn1Cc1cc(C#Cc2ccc(OCC(N)(CO)CO)cc2)on1	8 µg/mL

system: Klebsiella pneumoniae; test: Antibacterial activity against Klebsiella pneumoniae ATCC 13883 by CLSI method; format: functional

MIC	Compound
> 128 µg/mL	C[C@@H](O)c1nccn1Cc1cc(C#Cc2ccc(CCCO)cc2)on1
2 µg/mL (≈ 5.69 µM)	C[C@H](O)c1nccn1Cc1cc(C#Cc2ccc(CCCO)cc2)on1
4 µg/mL (≈ 11.4 µM)	CC(O)c1nccn1Cc1cc(C#Cc2ccc(CCCO)cc2)on1 (racemic)

Second part, the compound before the results:

Compound	MIC
C[C@H](O)c1nccn1Cc1cc(C#Cc2ccc(OCCCNC3COC3)cc2)on1	1 µg/mL (≈ 2.37 µM)
C[C@H](O)c1nccn1Cc1cc(C#Cc2ccc(OCCCNCCN)cc2)on1	32 µg/mL (≈ 78.1 µM)
CC(O)c1nccn1Cc1cc(C#Cc2ccccc2)on1 (racemic)	32 µg/mL (≈ 109 µM)
C[C@H](O)c1nccn1Cc1cc(C#Cc2ccc(OC3CN(CCO)C3)cc2)on1	4 µg/mL (≈ 9.79 µM)
C[C@H](O)c1nccn1Cc1cc(C#Cc2ccc(OCC(N)(CO)CO)cc2)on1	64 µg/mL (≈ 155 µM)

target: Matrix metalloproteinase-9 (Homo sapiens, UniProt P14780); test: Inhibition of human MMP-9 by fluorometric assay
Sequence (P14780 whole entry): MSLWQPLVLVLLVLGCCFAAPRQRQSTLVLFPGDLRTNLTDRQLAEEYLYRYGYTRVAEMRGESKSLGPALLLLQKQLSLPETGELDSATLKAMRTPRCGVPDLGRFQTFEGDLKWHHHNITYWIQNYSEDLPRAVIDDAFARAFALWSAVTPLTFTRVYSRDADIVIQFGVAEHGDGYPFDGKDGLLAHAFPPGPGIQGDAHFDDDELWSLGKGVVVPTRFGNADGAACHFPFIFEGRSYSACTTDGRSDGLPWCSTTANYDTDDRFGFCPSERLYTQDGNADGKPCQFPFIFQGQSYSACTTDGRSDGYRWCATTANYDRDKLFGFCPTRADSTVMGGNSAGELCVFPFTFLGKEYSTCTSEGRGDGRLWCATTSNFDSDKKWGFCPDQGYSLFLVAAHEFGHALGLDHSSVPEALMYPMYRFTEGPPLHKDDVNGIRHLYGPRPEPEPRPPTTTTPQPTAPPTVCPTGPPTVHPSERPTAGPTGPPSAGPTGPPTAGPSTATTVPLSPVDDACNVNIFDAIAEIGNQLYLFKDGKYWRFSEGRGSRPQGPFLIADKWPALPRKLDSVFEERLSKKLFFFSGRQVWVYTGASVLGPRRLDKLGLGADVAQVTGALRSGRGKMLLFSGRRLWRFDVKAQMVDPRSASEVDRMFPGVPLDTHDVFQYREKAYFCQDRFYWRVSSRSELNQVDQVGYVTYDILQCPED

Compound	IC50
O=C(NO)[C@@H](Cc1ccc2ccccc2c1)NS(=O)(=O)c1ccc2ccccc2c1	0.0972 µM
C[C@H](O)c1nccn1Cc1cc(C#Cc2ccc(OCC(N)(CO)CO)cc2)on1	> 100 µM
CS(=O)(=O)C[C@H](O)[C@@H](N)C(=O)N1CCC(Cc2ccc(C#Cc3ccc(CO)cc3)cc2)CC1 (racemic)	> 100 µM

target: T1, UDP-3-O-acyl-N-acetylglucosamine deacetylase; test: Inhibition of histidine-tagged Pseudomonas aeruginosa LpxC (1-303) expressed in Escherichia coli BL21 (DE3) using UDP-3-O-(R-3-hydroxydecanoyl)-N-acetylglucosamine as substrate measured after 60 mins by Fluorescence plate reader analysis

IC50	Compound
0.161 µM	CC(O)c1nccn1CCCc1ccc(C#Cc2ccccc2)cc1 (racemic)
1.4 µM	C[C@@H](O)c1nccn1Cc1cc(C#Cc2ccc(CCCO)cc2)on1
0.568 µM	CC(O)c1nccn1Cc1ccc(C#Cc2ccccc2)cc1 (racemic)
0.00403 µM	C[C@H](O)c1nccn1Cc1cc(C#Cc2ccc(CCCO)cc2)on1
0.00896 µM	CC(O)c1nccn1Cc1cc(C#Cc2ccc(CCCO)cc2)on1 (racemic)

Second part, the compound before the results:

Compound	IC50
CC(O)c1nccn1Cc1cc(-c2ccccc2)on1 (racemic)	0.884 µM
C[C@H](O)c1nccn1Cc1cc(C#Cc2ccc(OCCCNC3COC3)cc2)on1	0.00463 µM
C[C@H](O)c1nccn1Cc1cc(C#Cc2ccc(OCCCNCCN)cc2)on1	0.00704 µM
OC(COc1ccc(Cl)cc1)Cn1ccnc1 (racemic)	466 µM
Clc1ccc(CCCn2ccnc2)cc1	111 µM
CC(O)c1nccn1Cc1cc(C#Cc2ccccc2)on1 (racemic)	0.0475 µM
C[C@H](O)c1nccn1Cc1cc(C#Cc2ccc(OC3CN(CCO)C3)cc2)on1	0.00442 µM
C[C@H](O)c1nccn1Cc1cc(C#Cc2ccc(OCC(N)(CO)CO)cc2)on1	0.02 µM

target: T1, UDP-3-O-acyl-N-acetylglucosamine deacetylase; test: Inhibition of histidine-tagged Pseudomonas aeruginosa LpxC (1-303) expressed in Escherichia coli BL21 (DE3) using UDP-3-O-(R-3-hydroxydecanoyl)-N-acetylglucosamine as substrate measured after 60 mins by LC-MS/MS analysis

Compound	IC50
N[C@H](CC(=O)O)C(=O)Nc1cccc(OC(F)(F)F)c1	11.3 µM
CS(=O)(=O)C[C@@H](N)C(=O)Nc1cccc(OC(F)(F)F)c1	> 100 µM
N[C@H](CO)C(=O)N1CCC(Cc2ccc(C#Cc3ccc(CO)cc3)cc2)CC1	0.0221 µM

target: Stromelysin-1 (Homo sapiens, UniProt P08254); test: Inhibition of human MMP-3 by fluorometric assay
Sequence (P08254 whole entry): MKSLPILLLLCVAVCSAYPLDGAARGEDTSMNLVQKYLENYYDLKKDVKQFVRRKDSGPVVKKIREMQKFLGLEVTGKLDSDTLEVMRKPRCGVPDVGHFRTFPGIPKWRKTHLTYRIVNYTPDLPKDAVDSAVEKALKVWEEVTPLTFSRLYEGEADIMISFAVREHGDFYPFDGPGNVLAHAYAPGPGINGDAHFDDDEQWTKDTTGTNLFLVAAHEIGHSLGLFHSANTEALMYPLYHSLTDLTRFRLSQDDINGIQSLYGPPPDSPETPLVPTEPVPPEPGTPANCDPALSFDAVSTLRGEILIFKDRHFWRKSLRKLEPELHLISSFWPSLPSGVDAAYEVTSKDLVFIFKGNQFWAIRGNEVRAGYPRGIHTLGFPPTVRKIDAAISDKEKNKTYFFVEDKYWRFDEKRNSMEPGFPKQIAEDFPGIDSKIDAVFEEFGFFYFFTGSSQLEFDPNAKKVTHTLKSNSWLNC

Compound	IC50
O=C(NO)[C@@H](Cc1ccc2ccccc2c1)NS(=O)(=O)c1ccc2ccccc2c1	0.416 µM
C[C@H](O)c1nccn1Cc1cc(C#Cc2ccc(OCC(N)(CO)CO)cc2)on1	> 100 µM
CS(=O)(=O)C[C@H](O)[C@@H](N)C(=O)N1CCC(Cc2ccc(C#Cc3ccc(CO)cc3)cc2)CC1 (racemic)	> 100 µM
